This note sets out measurements from patent publication US20230382916A1, “HETEROARYL HETEROCYCLIC COMPOUNDS AND USES THEREOF” (HUTCHISON MEDIPHARMA LIMITED, priority 2020, published 2023).

Series [1] has as its system anti-IgD antibody-induced B cell activation in mice whole blood. The experiment in a line: In vivo efficacy of the inhibitory effect on BTK target: anti-IgD antibody-induced B cell activation in mice whole blood after oral dosing. Also noted: species or system mouse. To be noted: 5 mg/kg oral single dose, 16 h. The method, then: Objects: B cells in mice whole blood were induced and activated by the anti-IgD antibody, and the inhibitory effect of the compound of the present invention on B cell activation in vivo was studied, so as to determine the inhibitory effect of the compound of the present invention on the BTK target in vivo.
Methods: C57BL/6 mice (female, 18-20 g, purchased from Shanghai Lingchang Biotechnology Co., Ltd.) were grouped according to Table 1.
The animals of each group were administered, then were placed in CO2 for anesthesia at designated time points, blood samples were taken from […] via retro-orbital bleeding, and heparin was used for anticoagulation; 90 μL of whole blood was taken from mice of each group, and added to a 96 well culture plate, and anti-mouse IgD antibody (BIO-RAD, Cat #MCA4693) was added to each well to a final concentration of […] (respectively for each drug-treated group and anti-IgD antibody-inducted vehicle group); in addition, 90 μL of whole blood of mice in the vehicle group was taken and added to the 96-well culture plate, and PBS (phosphate buffer, GIBCO, Cat #C20012500BT) was added to each well to a final concentration of 0.01 μg/L (namely, the vehicle control group); Each group was mixed well and incubated in a 37° C./5% CO2 incubator for 4 hours. In addition, the blood of mice in the drug-treated group was centrifuged to separate plasma for blood concentration analysis.
B cell activation ratio=percentage of CD69^+CD19^+ double positive B cells/percentage of CD19^+ single positive B cells
Inhibition ratio=(percentage of B cell activation ratio in anti-IgD antibody-induced vehicle group−percentage of B cell activation ratio in drug-treated group)/(percentage of B cell activation ratio in anti-IgD antibody−induced vehicle group-percentage of B cell activation ratio in vehicle control group)×100%
All data are represented by mean±standard error. For the comparison between each drug-treated group and the anti-IgD antibody-induced vehicle group, p value was calculated by Graphpad Prism using one-way ANOVA analysis of variance and Dunnett's test, and for the comparison between each drug-treated group, p value was calculated by using unpaired t test.

The subject of series [2] is idiopathic thrombocytopenic purpura induced by anti-mouse CD41 antibodies. The experiment in a line: Idiopathic thrombocytopenic purpura induced by anti-CD41 antibody in mice, level of platelets. It is filed as in vivo. As for the experimental part:
Male C57BL/6 mice were purchased from Shanghai Lingchang Biotechnology Co., Ltd. (certificate number 20180003011079, initial body weight of 18-20 grams), and were randomly grouped according to Table 4, with 8 mice in each group. […] When modeling, each mouse was intraperitoneally injected with 200 μL of PBS solution containing […] of anti-mouse CD41 antibodies (BD, Cat #: 553487, Lot #: 7026765).
Eight hours and twenty-four hours after modeling, the whole blood was collected and placed in a centrifuge tube coated with 10% citrate-phosphate-dextrose-adenine (CPDA), and the level of platelets (PLT) in the whole blood was measured by an XT-2000i (SYSMEX) automatic blood analyzer (Shanghai Laboratory Animal Research Centre Sino-British SIPPR/B & K Lab Animal Ltd).
The average level of platelets in peripheral blood was analyzed with Graphpad statistical software by one way ANOVA followed by Fisher LSD multiple comparison test, and the p value was calculated, wherein *p<0.05 indicated a statistically significant difference compared with the vehicle control group, **p<0.01 indicated a statistically extremely significant difference compared with the vehicle control group, and ##p<0.01 indicated a statistically extremely significant difference compared with the normal group.
RR %=(PLTtreatment−PLTmodel)/(PLTnaive−PLTmodel)×100%.

Series [3] in a line: Stability test in liver microsomes (rat). It is filed as in vitro ADME. To be noted: rat liver microsomes 0.5 mg/mL, 1 μM compound. The method, then: Both male CD-1 mouse pooled liver microsomes and male SD rat pooled liver microsomes were purchased from BioreclamationIVT Corporation, USA.
The test compound stock solution was diluted with an organic solvent (usually a mixture of acetonitrile, methanol and water with various ratios, depending on the solubility of the compound, if necessary, 1 N hydrochloric acid or 1 N sodium hydroxide would be added to facilitate solubilization) to the 0.1 mM (the final concentration of the compound in the reaction system was 1 μM) and the concentration percentage of the organic solvents in the incubation system no more than 1% (wherein the percentage of DMSO was required to be no more than 0.1%). An appropriate amount of 100 mM NADP, 500 mM G-6-P and 100 Unit/mL G-6-PDH were mixed and diluted with ultrapure water (the final system contains 1 mM NADP, 5 mM G-6-P and 1 Unit/mL G-6-PDH), pre-incubated in a 37° C. water bath for 10 minutes and then placed on ice for use as a NADPH regeneration solution. 20 mg/mL liver microsomes solution and 200 mM phosphate buffer were mixed, and diluted with ultrapure water to give a liver microsomes solution containing 2.5 mg/mL liver microsomes (the final concentration of the reaction system is 0.5 mg/mL) and 50 mM phosphate buffer. The diluted liver microsomes solution was mixed with 0.1 mM compound solution, a mixture of 100 mM EDTA, 300 mM MgCl2 solution, 200 mM phosphate buffer (the final system was 3 mM MgCl2, 1 mM EDTA and 50 mM phosphate buffer) and water in an appropriate volume was added. Finally, the NADPH regeneration solution was added, then the reaction solution was placed in a 37° C. water bath to start the reaction (the reaction time was 30 minutes), and the reaction was stopped by adding the ice-cold acetonitrile reaction stopping solution containing the internal standard. The 0-minute sample was not incubated in a 37° C. water bath, and its difference from the 30-minute sample further lies in that the ice-cold acetonitrile reaction stopping solution containing the internal standard was added first, and then the NADPH regeneration solution was added. The sample added with the reaction stopping internal standard solution was vortexed and mixed well, and then centrifuged at 4400 rpm for 10 minutes. The supernatant was taken and diluted ten times with 50% methanol for LC-MS/MS analysis.
LC-MS/MS was used to determine the concentration of the compound in the sample. The percentage of the remaining compound after 30 minutes of incubation comparing with that in the 0-minute sample was calculated using the peak area ratio of the compound to the internal standard as an indicator, to evaluate the metabolic stability of the compound.
For orientation: Liver microsomes are vesicles of endoplasmic reticulum, rich in cytochrome P450 enzymes.

As for `C[C@H]1CN(C2COC2)C[C@H](C)N1c1ccc(Nc2cc(-c3ccnc(-n4ccn5c6c(cc5c4=O)CC(C)(C)C6)c3CO)cn(C)c2=O)nc1` [Compound 1, 2-(5-((5-((2S,6S)-2,6-dimethyl-4-(oxetan-3-yl)piperazin-1-yl)pyridin-2-yl)amino)-3′-(hydroxymethyl)-1-methyl-6-oxo-1,6-dihydro-[3,4′-bipyridin]-2′-yl)-7,7-dimethyl-7,8-dihydro-2H-cyclopenta[4,5]pyrrolo[1,2-a]pyrazin-1(6H)-one], the “Inhibition ratio (%) on B cell activation” value in series [1] and in series [1] (listed as compound 1) was 60% throughout. Also, the “B cell activation ratio (the population of activated B cells in total B cells)” value in series [1] (mean ± standard error) came to 16.0 ± 3.9. In addition, the “recovery rate of platelets” value in series [2] (0.004 mg/kg oral single dose, 8 hours after modeling) was 25%; in series [2] (0.004 mg/kg oral single dose, 24 hours after modeling), 5%; in series [2] (0.04 mg/kg oral single dose, 8 hours after modeling), 37%; in series [2] (0.04 mg/kg oral single dose, 24 hours after modeling), 21%; in series [2] (0.4 mg/kg oral single dose, 8 hours after modeling), 44%; in series [2] (0.4 mg/kg oral single dose, 24 hours after modeling) it was 29%. Further, the “recovery rate of platelets” value in series [2] (4 mg/kg oral single dose, 8 hours after modeling) is 51%; in series [2] (4 mg/kg oral single dose, 24 hours after modeling), 29%. In addition, the minimum effective dose in series [2] (single oral dose, platelets 8 hours after modeling) is reported as 0.04 mg/kg. Also, in series [3], the “RLM, percentage of the remaining compound after 30 minutes of incubation” value was 87.9%.
